pEC50, pIC50, pKi: −log10 of the molar value. Read-outs that look alike come from different tables or passages of the source.
Assays:
CYP2C8 = target: T1, CYP2C8 (Homo sapiens, UniProt P10632); assay: CYP inhibition in human liver microsomes (MIH0887), CYP2C8; format: in vitro ADME; conditions: HLM, apparent Ki, reversible inhibition
T1 construct: from tissue; host or cells: human liver microsomes
T1 sequence (P10632 1-490): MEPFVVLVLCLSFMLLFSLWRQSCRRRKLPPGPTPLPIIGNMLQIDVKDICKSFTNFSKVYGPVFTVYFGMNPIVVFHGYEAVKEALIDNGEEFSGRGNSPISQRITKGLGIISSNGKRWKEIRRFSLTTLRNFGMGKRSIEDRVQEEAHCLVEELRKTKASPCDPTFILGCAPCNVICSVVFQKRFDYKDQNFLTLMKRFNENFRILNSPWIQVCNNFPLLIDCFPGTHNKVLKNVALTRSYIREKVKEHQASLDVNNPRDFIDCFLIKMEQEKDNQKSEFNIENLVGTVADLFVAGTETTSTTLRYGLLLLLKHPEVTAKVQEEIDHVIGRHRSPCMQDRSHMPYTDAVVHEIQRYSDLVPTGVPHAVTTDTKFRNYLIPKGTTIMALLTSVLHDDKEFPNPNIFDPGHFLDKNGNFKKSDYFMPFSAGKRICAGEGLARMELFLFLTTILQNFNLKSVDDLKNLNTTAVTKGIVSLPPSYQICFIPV
Procedure: The CYP enzyme reverse inhibition and mechanism-based inhibition (MBI) parameters were estimated in the human liver microsome (HLM) incubation in vitro studies. The reported reversible inhibition parameter (i.e., apparent Ki) values for CYP2C8, CYP2C9, and CYP2D6, along with the MBI parameters (i.e., KI or Kapp and kinact) for CYP2C19 and CYP3A4, were supplied to the PBPK DDI model (see Table 2).

[1] = healthy subjects, cited from earlier work; for AUC (AUCinf) / Cmax: observation, ref Study TDU12620/INT12894
OCT1 = target: T2, OCT1 (Homo sapiens, UniProt O15245); assay: OCT1 inhibition, CHO-hOCT1 cells (TRI0013); format: in vitro ADME
T2 construct: expressed in transfected cells; host or cells: CHO^Fi-hOCT1
T2 sequence (O15245 1-554): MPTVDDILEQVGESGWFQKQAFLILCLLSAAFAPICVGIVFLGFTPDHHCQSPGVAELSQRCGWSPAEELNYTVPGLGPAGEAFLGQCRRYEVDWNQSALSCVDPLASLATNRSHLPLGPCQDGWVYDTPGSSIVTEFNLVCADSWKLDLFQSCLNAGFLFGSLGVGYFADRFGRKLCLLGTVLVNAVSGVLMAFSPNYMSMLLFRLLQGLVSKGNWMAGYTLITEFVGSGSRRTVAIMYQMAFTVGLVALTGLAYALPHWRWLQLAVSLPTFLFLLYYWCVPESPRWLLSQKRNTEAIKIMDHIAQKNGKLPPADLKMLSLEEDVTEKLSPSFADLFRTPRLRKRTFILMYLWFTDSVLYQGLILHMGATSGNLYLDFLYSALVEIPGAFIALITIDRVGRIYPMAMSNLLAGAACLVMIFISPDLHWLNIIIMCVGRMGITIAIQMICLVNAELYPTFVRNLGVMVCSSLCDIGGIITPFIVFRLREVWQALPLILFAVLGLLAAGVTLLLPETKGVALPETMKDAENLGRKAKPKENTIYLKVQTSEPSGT
Description: (§1) The reported IC50 values were converted to Ki values using the Cheng-Prusoff equation [10]:
(§2) The transporter inhibition parameters (Ki) for fedratinib were derived from the experimentally determined IC50 values using the Cheng-Prusoff equation, i.e., Ki = IC50/(1+[S]/Km) with the substrate concentrations ([S]) reported in the experimental studies and the substrate Km values collected from literature, as summarized in Table 13.

CYP3A4 = assay: CYP3A induction in primary human hepatocytes (IHH0014); format: in vitro ADME
Description: The induction effect of fedratinib on CYP3A gene expression was identified using human hepatocytes in primary culture. The reported kinetic data, i.e., concentration-dependent fold induction of CYP3A mRNA levels, were fitted to estimate the Indmax and IndC50 values for fedratinib with calibration against the induction effect observed for the positive control compound rifampin [9].

[2] = design: method as in PMID 32248324; conditions: healthy subjects, observation, cited from earlier work; for AUC GM Ratio (90% CI): 300 mg single dose with vs without ketoconazole 200 mg BID, AUCinf
OATP1B3 = target: T3, OATP1B3 (Homo sapiens, UniProt Q9NPD5); assay: OATP1B3 inhibition, HEK-hOATP1B3 cells (TRE0075); format: in vitro ADME; design: expressed in transfected cells; host or cells: HEK^TR-hOATP1B3
T3 sequence (Q9NPD5 1-702): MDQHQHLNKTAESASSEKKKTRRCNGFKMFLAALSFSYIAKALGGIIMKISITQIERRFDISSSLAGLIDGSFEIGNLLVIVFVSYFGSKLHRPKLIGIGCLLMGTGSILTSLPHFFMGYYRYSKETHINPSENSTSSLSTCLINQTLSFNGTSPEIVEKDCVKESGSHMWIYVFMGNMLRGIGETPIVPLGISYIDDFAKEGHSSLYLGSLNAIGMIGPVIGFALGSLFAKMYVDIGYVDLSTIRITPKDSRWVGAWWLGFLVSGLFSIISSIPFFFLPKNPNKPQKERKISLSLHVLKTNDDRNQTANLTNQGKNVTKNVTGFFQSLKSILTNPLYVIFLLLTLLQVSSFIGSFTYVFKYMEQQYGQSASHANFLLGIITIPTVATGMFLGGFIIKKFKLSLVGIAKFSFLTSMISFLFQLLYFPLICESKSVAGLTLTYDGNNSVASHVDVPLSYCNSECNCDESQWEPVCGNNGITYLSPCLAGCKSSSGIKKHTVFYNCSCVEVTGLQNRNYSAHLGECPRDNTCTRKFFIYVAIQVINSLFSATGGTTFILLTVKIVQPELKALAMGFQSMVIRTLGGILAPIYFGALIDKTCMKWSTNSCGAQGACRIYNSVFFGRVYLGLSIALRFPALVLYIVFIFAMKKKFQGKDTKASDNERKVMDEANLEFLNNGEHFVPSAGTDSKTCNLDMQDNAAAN
Description: as §1, §2

[3] = 300 mg single dose + ketoconazole 200 mg BID, GM
[4] = 300 mg single dose + ketoconazole 200 mg BID, Mean (SD)
[5] = 300 mg single dose alone, Mean (SD)

In the case of `Cc1cnc(Nc2ccc(OCCN3CCCC3)cc2)nc1Nc1cccc(S(=O)(=O)NC(C)(C)C)c1` [Fedratinib], the pKi (CYP2C8) is listed as 4.30, the “AUC (AUCinf)” value ([1]; 300 mg single dose, GM) is listed as 6530 ng·h/mL and the Cmax ([1]; 300 mg single dose, GM) is listed as 497 ng/mL. For the same compound, the “AUC (AUCinf)” value ([1]; 300 mg single dose, Mean (SD)) was 6730 (1990) ng/mL·h, the Cmax ([1]; 300 mg single dose, Mean (SD)) was 521 (189) ng/mL and the “AUC (AUCinf)” value ([1]; 500 mg single dose, GM) was 13200 ng·h/mL. For the same compound, the Cmax ([1]; 500 mg single dose, GM) was 683 ng/mL, the “AUC (AUCinf)” value ([1]; 500 mg single dose, Mean (SD)) was 13900 (5240) ng/mL·h and the Cmax ([1]; 500 mg single dose, Mean (SD)) was 720 (243) ng/mL. The “dose-normalized AUC” value ([1]; single doses above 100 mg, ref [3]) was 30 ng·h/mL/mg, the pKi (OCT1; from IC50 by Cheng-Prusoff, probe TEA) was 5.25 and the pIC50 (OCT1; probe TEA 25 μM) was 5.22. For the same compound, the “CYP3A4 Ind max” value (CYP3A4; Simcyp input) was 78.000, the pEC50 (CYP3A4; human, human hepatocytes in primary culture, CYP3A mRNA, fitted, calibrated against rifampin, read-out: CYP3A4 IndC50) was 5.28 and the “CYP3A Indmax” value (CYP3A4; maximal fold induction over vehicle, CYP3A mRNA, calibrated against rifampin) was 78.0. For the same compound, the “AUC (AUCinf)” value [2, 3] was 25000 ng·h/mL, the Cmax [2, 3] was 741 ng/mL and the “AUC (AUCinf)” value [2, 4] was 26,800 (10,600) ng/mL·h. The Cmax [2, 4] was 812 (374) ng/mL, the “AUC (AUCinf)” value ([2]; 300 mg single dose alone, GM) was 6460 ng·h/mL and the Cmax ([2]; 300 mg single dose alone, GM) was 379 ng/mL. For the same compound, the “AUC (AUCinf)” value [2, 5] was 7440 (4060) ng/mL·h, the Cmax [2, 5] was 444 (262) ng/mL and the “AUC GM Ratio (90% CI)” value [2] was 3.06 (2.46–3.80). For the same compound, the “AUC GM Ratio (90% CI)” value ([2]; listed as fedratinib) was 3.06, the pKi (OATP1B3; from IC50 by Cheng-Prusoff, probe CCK8) was 5.08 and the pIC50 (OATP1B3; probe CCK8 0.5 μM) was 5.02.
